The source made the active and inactive calls. The calls are words filed in the database; no cut-off is given here.
Legend:
[1] = target: T1, Putative protoporphyrinogen IX oxidase (Cucumis sativus) (UniProt C6L817); test: Inhibition of protoporphyrin oxidase in Cucumis sativus (cucumber) cotyledon disc assessed as increase in extraplastidic protoporphyrin 9 accumulation at 100 uM incubated in dim light for 2 hr by HPLC analysis relative to control
T1 sequence (whole entry): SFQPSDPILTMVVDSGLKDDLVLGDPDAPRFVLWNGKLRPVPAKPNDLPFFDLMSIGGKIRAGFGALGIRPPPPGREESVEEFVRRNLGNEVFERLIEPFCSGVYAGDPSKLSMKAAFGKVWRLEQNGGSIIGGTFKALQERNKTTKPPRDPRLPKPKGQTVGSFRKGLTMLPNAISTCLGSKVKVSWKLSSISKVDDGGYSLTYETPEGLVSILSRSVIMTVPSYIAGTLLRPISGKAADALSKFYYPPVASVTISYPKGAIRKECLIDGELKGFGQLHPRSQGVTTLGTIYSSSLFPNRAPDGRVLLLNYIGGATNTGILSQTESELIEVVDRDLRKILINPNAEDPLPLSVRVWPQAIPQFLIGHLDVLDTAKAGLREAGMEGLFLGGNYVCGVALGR

[2] = target: T1, Putative protoporphyrinogen IX oxidase (Cucumis sativus); test: Inhibition of protoporphyrin oxidase in Cucumis sativus (cucumber) cotyledon disc assessed as light-dependent membrane damage at 100 uM incubated for 20 hr in dark followed by 8 hr in presence of light measured as electrolyte leakage relative to control
[3] = target: T1, Putative protoporphyrinogen IX oxidase (Cucumis sativus); test: Inhibition of protoporphyrin oxidase in Cucumis sativus (cucumber) cotyledon disc assessed as light-dependent membrane damage at 1 uM incubated for 20 hr in dark followed by 8 hr in presence of light measured as electrolyte leakage relative to control
Ipomoea purpurea [4] = test: Pre-emergence herbicidal activity against Ipomoea purpurea (common morning-glory) assessed as injury at 50 g/ha applied at 24 hr post-sowing measured after 28 days relative to control; assay type: functional
Geranium dissectum [5] = test: Pre-emergence herbicidal activity against Geranium dissectum assessed as injury at 50 g/ha applied at 24 hr post-sowing measured after 28 days relative to control; assay type: functional
Capsella bursa-pastoris [6] = test: Pre-emergence herbicidal activity against Capsella bursa-pastoris assessed as injury at 50 g/ha applied at 24 hr post-sowing measured after 28 days relative to control; assay type: functional
Abutilon theophrasti = test: Pre-emergence herbicidal activity against Abutilon theophrasti (velvetleaf) assessed as injury at 50 g/ha applied at 24 hr post-sowing measured after 28 days relative to control; assay type: functional
Setaria viridis = test: Pre-emergence herbicidal activity against Setaria viridis (green foxtail) assessed as injury at 150 g/ha applied at 24 hr post-sowing measured after 28 days relative to control; assay type: functional
Panicum dichotomiflorum [7] = test: Pre-emergence herbicidal activity against Panicum dichotomiflorum assessed as injury at 150 g/ha applied at 24 hr post-sowing measured after 28 days relative to control; assay type: functional
Beta vulgaris = test: Phytotoxicity against Beta vulgaris assessed as injury at 50 g/ha applied as pre-emergent treatment at 24 hr post-sowing measured after 28 days relative to control; assay type: organism-based; conditions: in vivo, other, 672 h
Digitaria sanguinalis = test: Pre-emergence herbicidal activity against Digitaria sanguinalis (hairy crabgrass) assessed as injury at 50 g/ha applied at 24 hr post-sowing measured after 28 days relative to control; assay type: functional
Veronica persica = test: Pre-emergence herbicidal activity against Veronica persica assessed as injury at 50 g/ha applied at 24 hr post-sowing measured after 28 days relative to control; assay type: functional
Ammi majus [8] = test: Post-emergence herbicidal activity against Amni maius assessed as injury at 150 g/ha applied at 15 days post-sowing measured after 15 days relative to control; assay type: functional
Ipomoea purpurea [9] = test: Post-emergence herbicidal activity against Ipomoea purpurea (common morning-glory) assessed as injury at 150 g/ha applied at 15 days post-sowing measured after 15 days relative to control; assay type: functional
Geranium dissectum [10] = test: Post-emergence herbicidal activity against Geranium dissectum assessed as injury at 150 g/ha applied at 15 days post-sowing measured after 15 days relative to control; assay type: functional
Ammi majus [11] = test: Post-emergence herbicidal activity against Amni maius assessed as injury at 50 g/ha applied at 15 days post-sowing measured after 15 days relative to control; assay type: functional
Gossypium hirsutum = test: Phytotoxicity against Gossypium hirsutum (cotton) assessed as injury at 150 g/ha applied as post-emergent treatment at 15 days post-sowing measured after 15 days relative to control; assay type: organism-based; conditions: in vivo, other, 360 h
Panicum dichotomiflorum [12] = test: Post-emergence herbicidal activity against Panicum dichotomiflorum assessed as injury at 15 g/ha applied at 15 days post-sowing measured after 15 days relative to control; assay type: functional
Solanum nigrum [13] = test: Pre-emergence herbicidal activity against Solanum nigrum (black nightshade) assessed as injury at 150 g/ha applied at 24 hr post-sowing measured after 28 days relative to control; assay type: functional
Portulaca oleracea = test: Pre-emergence herbicidal activity against Portulaca oleracea assessed as injury at 150 g/ha applied at 24 hr post-sowing measured after 28 days relative to control; assay type: functional
Papaver rhoeas = test: Pre-emergence herbicidal activity against Papaver rhoeas assessed as injury at 150 g/ha applied at 24 hr post-sowing measured after 28 days relative to control; assay type: functional
Matricaria chamomilla = test: Pre-emergence herbicidal activity against Matricaria chamomilla assessed as injury at 150 g/ha applied at 24 hr post-sowing measured after 28 days relative to control; assay type: functional
Galium aparine [14] = test: Pre-emergence herbicidal activity against Galium aparine assessed as injury at 150 g/ha applied at 24 hr post-sowing measured after 28 days relative to control; assay type: functional
Sorghum bicolor = test: Post-emergence herbicidal activity against Sorghum bicolor assessed as injury at 50 g/ha applied at 15 days post-sowing measured after 15 days relative to control; assay type: functional
Capsella bursa-pastoris [15] = test: Pre-emergence herbicidal activity against Capsella bursa-pastoris assessed as injury at 150 g/ha applied at 24 hr post-sowing measured after 28 days relative to control; assay type: functional
Echinochloa crus-galli = test: Post-emergence herbicidal activity against Echinochloa crus-galli (barnyard grass) assessed as injury at 50 g/ha applied at 15 days post-sowing measured after 15 days relative to control; assay type: functional
Alopecurus myosuroides = test: Post-emergence herbicidal activity against Alopecurus myosuroides assessed as injury at 50 g/ha applied at 15 days post-sowing measured after 15 days relative to control; assay type: functional
Solanum nigrum [16] = test: Post-emergence herbicidal activity against Solanum nigrum (black nightshade) assessed as injury at 50 g/ha applied at 15 days post-sowing measured after 15 days relative to control; assay type: functional
Ipomoea purpurea [17] = test: Post-emergence herbicidal activity against Ipomoea purpurea (common morning-glory) assessed as injury at 50 g/ha applied at 15 days post-sowing measured after 15 days relative to control; assay type: functional
Geranium dissectum [18] = test: Post-emergence herbicidal activity against Geranium dissectum assessed as injury at 50 g/ha applied at 15 days post-sowing measured after 15 days relative to control; assay type: functional
Galium aparine [19] = test: Post-emergence herbicidal activity against Galium aparine assessed as injury at 50 g/ha applied at 15 days post-sowing measured after 15 days relative to control; assay type: functional
Capsella bursa-pastoris [20] = test: Post-emergence herbicidal activity against Capsella bursa-pastoris assessed as injury at 50 g/ha applied at 15 days post-sowing measured after 15 days relative to control; assay type: functional

For C#CCOc1cc(-n2nc(C(C)(C)C)sc2=O)c(Cl)cc1Cl, the fold change (FC) [1] was 292, the inhibition [2] was 90% and the inhibition [3] was “inactive”. For the same compound, the Activity (Ipomoea purpurea [4]) was 0%, the Activity (Geranium dissectum [5]) was 0% and the Activity (Capsella bursa-pastoris [6]) was 70%. It also gave an Activity (Abutilon theophrasti) of 0%, an Activity (Setaria viridis) of 70% and an Activity (Panicum dichotomiflorum [7]) of 90%. The Activity (Beta vulgaris) was 10%, the Activity (Digitaria sanguinalis) was 70% and the Activity (Veronica persica) was 30%. The Activity (Ammi majus [8]) was 10%, the Activity (Ipomoea purpurea [9]) was 90% and the Activity (Geranium dissectum [10]) was 50%. The Activity (Ammi majus [11]) was 0%, the Activity (Gossypium hirsutum) was 70% and the Activity (Panicum dichotomiflorum [12]) was 0%. For the same compound, the Activity (Solanum nigrum [13]) was 70%, the Activity (Portulaca oleracea) was 90% and the Activity (Papaver rhoeas) was 90%. It also gave an Activity (Matricaria chamomilla) of 50%, an Activity (Galium aparine [14]) of 0% and an Activity (Sorghum bicolor) of 0%. For the same compound, the Activity (Capsella bursa-pastoris [15]) was 90%, the Activity (Echinochloa crus-galli) was 0% and the Activity (Alopecurus myosuroides) was 30%. The Activity (Solanum nigrum [16]) was 90%, the Activity (Ipomoea purpurea [17]) was 90% and the Activity (Geranium dissectum [18]) was 50%. For the same compound, the Activity (Galium aparine [19]) was 30% and the Activity (Capsella bursa-pastoris [20]) was 10%.
